Results taken from patent US20160122312A1, “ANTI-VIRAL COMPOUNDS, PHARMACEUTICAL COMPOSITIONS AND METHODS OF USE THEREOF” (KINETA, INC., priority 2013, published 2016).

What was measured:
[1] = test system: influenza virus A/Udorn/72 H3N2 strain; test: influenza focus-forming assay in 293 cells; format: cell-based; settings: for antiviral activity compared with KIN101 (viral titer): FIG. 3A; for IC50: HEK293, 24 h, read-out: Flu IC50; for viral infection of 293 cells (decrease in foci, dose dependence): FIGS. 3A, 3B
DNV type 2 strain = test: DNV focus-forming assay in Huh7 cells; format: cell-based, Dengue virus; settings: for IC50: Dengue virus, Huh-7, Huh7 cells, treatment after infection, 48 hours replication; for viral infection of Huh7 cells (decrease in foci, dose dependence): FIG. 4B
hCMV AD169 strain = test: hCMV focus-forming assay in human foreskin fibroblasts; format: cell-based, human cytomegalovirus; settings: FIGS. 5A, 5B
Murine EMCV = test: EMCV in vitro antiviral assay, Huh7 cell viability by MTS; format: cell-based, encephalomyocarditis virus; settings: Huh7 cells; for Cell viability post-infection: 5 hours before EMCV, MTS 18 hours after infection
Protocol: In an encephalomyocarditis virus (EMCV) in vitro antiviral assay, Huh7 cells were grown under normal growth conditions and treated with the indicated amount of KIN101 in media containing 0.5% DMSO. The cells were grown in the presence of compound for 5 hours and then infected with 250 pfu Murine EMCV obtained from ATCC #VR-129B. Infected cells were grown for an additional 18 hours and then cell viability was measured using an MTS assay. Negative control cells were treated with buffer alone containing 0.5% DMSO. Interferon treatment was used as a positive control for virus inhibition and was added similar to compound treatments at a final concentration of 10 IU/mL Interferon-α: Intron A, from Schering-Plough. Cell viability was measured using an MTS assay, CellTiter 96® AQueous One Solution Cell Proliferation Assay (MTS), from Promega #G3580. […]

RSV A2 Long strain = test: RSV antiviral assay in HeLa cells; format: cell-based, respiratory syncytial virus; settings: 48 hours post infection, FIG. 2B
[2] = test system: interferon-stimulated gene (ISG) induction; test: preliminary screen of natural product library for ISG induction; format: cell-based; settings: preliminary screen of NCI natural product library
From the text: The compounds disclosed herein are described as isoflavone compounds. Isoflavones are best known as natural products isolated from the Leguminosae (legume) family and are usually polyhydroxylated and pharmacologically active as phytoestrogenics and antioxidants. The most recognizable member of this class is genistein, which has been reported to have anticancer activities and to induce thymic and immune changes in mammals (Banerjee, S., et al. (2008) Multi-targeted therapy of cancer by genistein, Cancer Lett 269, 226-242).

Row | SMILES | IC50 [1] | IC50 (DNV type 2 strain) | also measured
1 | CS(=O)(=O)Oc1ccc2c(=O)c(-c3ccc(NS(=O)(=O)N4CCCCC4)cc3)coc2c1 [KIN308] | 108 nM | 4160 nM | antiviral activity compared with KIN101 (viral titer) [1]: improved on this antiviral activity
2 | CN(c1ccc2c(=O)c(-c3ccc(C(C)(C)C)cc3)coc2c1)S(C)(=O)=O [KIN385] | 9 nM | 293 nM | viral infection of 293 cells (decrease in foci, dose dependence) [1]: dose-dependent decreases in viral infection; viral infection of Huh7 cells (decrease in foci, dose dependence) (DNV type 2 strain): dose-dependent decreases in viral infection; hCMV as measured by foci (FFU/mL), dose dependence (hCMV AD169 strain): dose-dependent decreases in hCMV
3 | CN1CCN(CCOc2ccc3c(=O)c(-c4ccc(C(C)(C)C)cc4)coc3c2)CC1 [KIN807] | 143 nM | 130 nM | 
4 | CCN(c1ccc2c(=O)c(-c3ccc(C(C)(C)C)cc3)coc2c1)S(C)(=O)=O [KIN866] | 27 nM | 507 nM | 
5 | CS(=O)(=O)Oc1ccc2c(=O)c(-c3ccc(OCC4CCCOC4)cc3)coc2c1 (stereo not shown) [KIN850] | 2 nM | 1350 nM | 
6 | CC(=O)N1CCN(CCOc2ccc3c(=O)c(-c4ccc(Br)cc4)coc3c2)CC1 [KIN844] | 2 nM | 316 nM | 
7 | CC(C)(C)c1ccc(-c2coc3cc(OCCO)ccc3c2=O)cc1 [KIN851] | 417 nM | 1190 nM | 
8 | C#CCOc1ccc2c(=O)c(-c3ccc(C(C)(C)C)cc3)coc2c1 [KIN328] | 286 nM | 1340 nM | viral infection of 293 cells (decrease in foci, dose dependence) [1]: dose-dependent decreases in viral infection; viral infection of Huh7 cells (decrease in foci, dose dependence) (DNV type 2 strain): dose-dependent decreases in viral infection; hCMV as measured by foci (FFU/mL), dose dependence (hCMV AD169 strain): dose-dependent decreases in hCMV
9 | CN(c1ccc2c(=O)c(-c3ccc(OCC(C)(C)C)cc3)coc2c1)S(C)(=O)=O [KIN867] | 7 nM | 304 nM | 
10 | CS(=O)(=O)Oc1ccc2c(=O)c(-c3ccc(OC(F)F)cc3)coc2c1 [KIN378] | 600 nM | > 5000 nM | 
11 | CS(=O)(=O)Oc1ccc2c(=O)c(-c3ccc(C(F)(F)F)cc3)coc2c1 [KIN263] | 800 nM | 1390 nM | antiviral activity compared with KIN101 (viral titer) [1]: improved on this antiviral activity
12 | O=C(COc1ccc2c(=O)c(-c3ccc(Br)cc3)coc2c1)N1CCOCC1 [KIN238] | 1200 nM | 1180 nM | 
13 | CS(=O)(=O)Oc1ccc2c(=O)c(-c3ccc(Br)cc3)coc2c1 [KIN101] | 2000 nM | > 5000 nM | viral infection of 293 cells (decrease in foci, dose dependence) [1]: dose-dependent decreases in viral infection; Cell viability post-infection (Murine EMCV; 5 units added): ~0.7; Cell viability post-infection (Murine EMCV; 10 units added): ~1.2; Cell viability post-infection (Murine EMCV; 20 units added): ~1.45; cell viability following infection with EMCV (in words) (Murine EMCV): protective of cell viability; viral infection of Huh7 cells (decrease in foci, dose dependence) (DNV type 2 strain): dose-dependent decreases in viral infection; viral protein in cells infected with DNV (DNV type 2 strain; increasing amounts of compound, FIG. 4A): dose-dependent decrease in viral protein; RSV viral RNA (RSV A2 Long strain): decreased RSV viral RNA
14 | O=c1c(-c2ccc(OC(F)(F)F)cc2)coc2cc(OC(F)F)ccc12 [KIN299] | 709 nM | > 5000 nM | viral infection of 293 cells (decrease in foci, dose dependence) [1]: dose-dependent decreases in viral infection
15 | CC(C)(C)c1ccc(-c2coc3cc(OCC(=O)N4CCOCC4)ccc3c2=O)cc1 [KIN306] | 880 nM | 2810 nM | antiviral activity compared with KIN101 (viral titer) [1]: improved on this antiviral activity
16 | CC(C)(C)c1ccc(-c2coc3cc(OCCN4CCN(S(C)(=O)=O)CC4)ccc3c2=O)cc1 [KIN395] | 57 nM | 1970 nM | viral infection of 293 cells (decrease in foci, dose dependence) [1]: dose-dependent decreases in viral infection; hCMV as measured by foci (FFU/mL), dose dependence (hCMV AD169 strain): dose-dependent decreases in hCMV
17 | CN(c1ccc2c(=O)c(-c3ccc(OCC(F)(F)F)cc3)coc2c1)S(C)(=O)=O [KIN857] | 65 nM | 182 nM | 
18 | CC(C)(C)c1ccc(-c2coc3cc(OCCN4CCOCC4)ccc3c2=O)cc1 [KIN392] | 9 nM | 650 nM | viral infection of 293 cells (decrease in foci, dose dependence) [1]: dose-dependent decreases in viral infection; hCMV as measured by foci (FFU/mL), dose dependence (hCMV AD169 strain): dose-dependent decreases in hCMV
19 | CS(=O)(=O)N1CCN(CCOc2ccc3c(=O)c(-c4ccc(OC(F)(F)F)cc4)coc3c2)CC1 [KIN826] | 14 nM | 196 nM | 

Row | SMILES | IC50 [1] | IC50 (DNV type 2 strain) | also measured
20 | CC(C)(C)COc1ccc(-c2coc3cc(OS(C)(=O)=O)ccc3c2=O)cc1 [KIN372] | 37 nM | 1690 nM | viral infection of 293 cells (decrease in foci, dose dependence) [1]: dose-dependent decreases in viral infection; viral infection of Huh7 cells (decrease in foci, dose dependence) (DNV type 2 strain): dose-dependent decreases in viral infection; hCMV as measured by foci (FFU/mL), dose dependence (hCMV AD169 strain): dose-dependent decreases in hCMV
21 | CN(c1ccc(-c2coc3cc(OS(C)(=O)=O)ccc3c2=O)cc1)S(C)(=O)=O [KIN291] |  |  | antiviral activity compared with KIN101 (viral titer) [1]: improved on this antiviral activity
22 | O=c1c(-c2ccc(O)cc2)coc2cc(O)cc(O)c12 [genistein] |  |  | interferon-stimulated gene (ISG) induction, screen outcome [2]: validated hit
23 | O=C(COc1ccc2c(=O)c(-c3ccc(OC(F)(F)F)cc3)coc2c1)N1CCOCC1 [KIN290] | 1530 nM | 3100 nM | 
24 | CS(=O)(=O)Oc1ccc2c(=O)c(-c3cccc4ccccc34)coc2c1 [KIN267] |  |  | antiviral activity compared with KIN101 (viral titer) [1]: improved on this antiviral activity
25 | CS(=O)(=O)Oc1ccc2c(=O)c(C3CCCC3)coc2c1 [KIN282] |  |  | antiviral activity compared with KIN101 (viral titer) [1]: improved on this antiviral activity
26 | CS(=O)(=O)Oc1ccc2c(=O)c(-c3ccc(OCC4CC4)cc3)coc2c1 [KIN371] | 156 nM | > 5000 nM | viral infection of 293 cells (decrease in foci, dose dependence) [1]: dose-dependent decreases in viral infection
27 | CN1CCN(CCOc2ccc3c(=O)c(-c4ccc(OC(F)(F)F)cc4)coc3c2)CC1 [KIN823] | 153 nM | 371 nM | 
28 | O=c1c(-c2ccc(OC(F)(F)F)cc2)coc2cc(OCCN3CCOCC3)ccc12 [KIN824] | 76 nM | 217 nM | 
29 | CN(c1ccc2c(=O)c(-c3ccc(OCC4CC4)cc3)coc2c1)S(C)(=O)=O [KIN865] | 234 nM | 176 nM | 
30 | CS(=O)(=O)Oc1ccc2c(=O)c(-c3ccc(OCC(F)(F)F)cc3)coc2c1 [KIN376] | 103 nM | 5000 nM | viral infection of 293 cells (decrease in foci, dose dependence) [1]: dose-dependent decreases in viral infection; viral infection of Huh7 cells (decrease in foci, dose dependence) (DNV type 2 strain): dose-dependent decreases in viral infection; hCMV as measured by foci (FFU/mL), dose dependence (hCMV AD169 strain): dose-dependent decreases in hCMV
31 | CC(=O)N1CCN(CCOc2ccc3c(=O)c(-c4ccc(OC(F)(F)F)cc4)coc3c2)CC1 [KIN814] | 62 nM | 187 nM | 
32 | CC(=O)N1CCN(CCOc2ccc3c(=O)c(-c4ccc(C(C)(C)C)cc4)coc3c2)CC1 [KIN394] | 70 nM | 940 nM | viral infection of 293 cells (decrease in foci, dose dependence) [1]: dose-dependent decreases in viral infection; hCMV as measured by foci (FFU/mL), dose dependence (hCMV AD169 strain): dose-dependent decreases in hCMV
33 | CS(=O)(=O)Oc1ccc2c(=O)c(-c3ccc(OC(F)(F)F)cc3)coc2c1 [KIN134] | 450 nM | 3970 nM | antiviral activity compared with KIN101 (viral titer) [1]: improved on this antiviral activity; viral infection of Huh7 cells (decrease in foci, dose dependence) (DNV type 2 strain): dose-dependent decreases in viral infection; hCMV as measured by foci (FFU/mL), dose dependence (hCMV AD169 strain): dose-dependent decreases in hCMV
34 | CNCCOc1ccc2c(=O)c(-c3ccc(C(C)(C)C)cc3)coc2c1 [KIN861] | 405 nM | > 5000 nM | 
35 | CS(=O)(=O)Oc1ccc2c(=O)c(-c3ccc(OCC4CCOCC4)cc3)coc2c1 [KIN389] | 200 nM | > 5000 nM | 
36 | CS(=O)(=O)N1CCN(CCOc2ccc3c(=O)c(-c4ccc(Br)cc4)coc3c2)CC1 [KIN848] | 4 nM | 258 nM | 
37 | CN(c1ccc2c(=O)c(-c3ccc(OCCC(C)(C)C)cc3)coc2c1)S(C)(=O)=O [KIN882] | 30 nM | 216 nM | 
38 | CC(C)(C)c1ccc(-c2coc3cc(OS(C)(=O)=O)ccc3c2=O)cc1 [KIN269] | 145 nM | 542 nM | 
